Measurements: US20030032612A1 (priority 1997, published 2003)
Values joined by “and” are separate entries in the source; they are usually repeats but may differ in a detail not shown here. Equal entries are not always repeated.

Experiments:
Type in all cases: cell-based, E. coli
[1] = test system: AG 102 mar mutant; test: Gradient plate assay, MIC of antibiotics in AG 102 with plasmids; settings: Escherichia coli
Method: To establish further the inhibitory efficacy of antisense marA sequences, KMN23 (the same DNA vector described above, containing both the marR and the marA genes cloned in the antisense direction) was also expressed in the presence of various antibiotics (tetracycline (Tet), chloramphenicol (Cml), ampicillin (Amp) and rifampicin (Rif). The effect of KMN23 was assessed by measuring cell growth inhibition by the gradient plate method as described in Example 9. The results are shown in TABLE 3.
(§1) Bacterial susceptibility to tetracycline hydrochloride, chloramphenicol, ampicillin, kanamycin, rifampin, nalidixic acid and norfloxacin was assayed by the gradient plate method. (Microbiology: Including Immunology and Molecular Genetics (3rd ed.)(Davis et al. eds.(1980)J. P. Lippincott Co., Philadelphia, Pa.).

[2] = test system: ML308-C2; test: MIC on antibiotic gradient plates in Mar mutant ML308-C2; settings: Escherichia coli, read-out: MIC of norfloxacin
Method: Antibiotic resistant mutants of ML308-225 (Rahman et al. (1991) Antisense Res. Dev. 1:319-327) were grown and maintained at 30° C. in LB broth. These mutants were selected by spreading washed overnight cultures onto a LB agar plate containing chloramphenicol (5 μg/ml, Sigma, St. Louis, Mo.) and incubated at 30° C for 48-72 hours. Single colonies appearing after 48 hours were picked for further study.
One mutant showing increased minimal inhibitory concentrations (hereinafter referred to as MIC) to tetracycline, chloramphenicol, ampicillin, nalidixic acid, and norfloxacin was selected and designated ML308-C2. Sequencing confirmed a C® T substitution in amino acid 117 of marR, which results in a truncated MarR protein. […] Northern analysis using a marA DNA probe confirmed that ML308-C2 over expresses marA and was a Mar mutant (unpublished data).
as §1

[3] = test system: ML308-225-C2 (Mar mutant); test: Augmentation of bactericidal activity of norfloxacin by oligonucleotides, colony counts

SMILES | MIC [1] | MIC [2] | activity at 0.5 µg/mL ([3]; Escherichia coli, norfloxacin 0.5 µg/mL alone, 1 hour, Table 5, read-out: % OF CONTROL (untreated cells)) | % OF CONTROL CELLS ([3]; norfloxacin 0.5 μg/ml alone, oligo 1284 0 μM, duplicate experiments)
CC1(C)S[C@@H]2[C@H](NC(=O)[C@H](N)c3ccccc3)C(=O)N2[C@H]1C(=O)O [Amp, ampicillin] | 17.7 µg/mL |  |  | 
O=C(N[C@H](CO)[C@H](O)c1ccc([N+](=O)[O-])cc1)C(Cl)Cl [Cml, chloramphenicol] | 34.2 µg/mL |  |  | 
CCn1cc(C(=O)O)c(=O)c2cc(F)c(N3CCNCC3)cc21 [Norfloxacin, norfloxacin] |  | 0.5 µg/mL | 65% | 71% and 57%
CO[C@H]1/C=C/O[C@@]2(C)Oc3c(C)c(O)c4c(O)c(c(/C=N/N5CCN(C)CC5)c(O)c4c3C2=O)NC(=O)/C(C)=C\C=C\[C@H](C)[C@H](O)[C@@H](C)[C@@H](O)[C@@H](C)[C@H](OC(C)=O)[C@@H]1C [Rif, rifampicin] | 8.8 µg/mL |  |  | 
CN(C)[C@@H]1C(O)=C(C(N)=O)C(=O)[C@@]2(O)C(O)=C3C(=O)c4c(O)cccc4[C@@](C)(O)[C@H]3C[C@@H]12 [Tet, tetracycline] | 12.5 µg/mL |  |  | 
